Residues, ends and D or L forms follow the SMILES beside them.
What follows are molecules tested against T1, BTLA-Fc (Homo sapiens, UniProt Q7Z6A9) (assay: Surface plasmon resonance (SPR), binding of peptides to BTLA). Conditions: qualitative statement in running text.
T1 construct: Fc
T1 sequence (Q7Z6A9 31-157 limits assumed): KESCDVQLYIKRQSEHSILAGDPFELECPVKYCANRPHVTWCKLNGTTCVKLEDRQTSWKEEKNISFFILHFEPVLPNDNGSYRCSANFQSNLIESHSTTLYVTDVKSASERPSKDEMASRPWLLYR
Protocol: The SPR assay was conducted using Biacore T100 system with Sensor Chip CM5 (Cytiva, Marlborough, MA, USA). BTLA-Fc was conjugated to the chips with EDC/NHS coupling in NaAc buffer. The assay was performed in PBS buffer with 2% DMSO. The buffer calibration was conducted by mixing different volume of buffers with 1.5% or 2.8% DMSO. Various concentrations of the peptides were injected and flow through the chip at 30 µL/min. The signals were recorded and analyzed with either static (for fast dissociation) or kinetic (for slow dissociation) model.

Molecule	Binding to BTLA in words
CC(=O)N[C@@H](Cc1ccc(O)cc1)C(=O)N[C@@H](CCCNC(=N)N)C(=O)N[C@H](C(=O)N[C@@H](CCCCN)C(=O)N1CCC[C@H]1C(=O)N[C@@H](C)C(=O)N[C@@H](CS)C(=O)NCC(=O)N[C@@H](CCC(=O)O)C(=O)N[C@@H](CC(C)C)C(=O)N[C@H](C(=O)NCC(=O)N[C@H](C(=O)N[C@H](C(=O)N[C@@H](CS)C(=O)N[C@@H](Cc1ccccc1)C(=O)N1CCC[C@H]1C(N)=O)C(C)C)[C@@H](C)O)[C@@H](C)O)C(C)C [DP2-E1] (Ac-YRVKPACGELTGTVCFP-NH2)	binds slightly tighter than P0-E1, however weaker than DP2
Ac-KEACGELTGTVCE-NH2 [P0, reference compound]	can barely bind to BTLA

Same assay, conditions: value as stated in running text

Molecule	Kd
CC(=O)N[C@@H](Cc1ccc(O)cc1)C(=O)N[C@@H](CCCNC(=N)N)C(=O)N[C@H](C(=O)N[C@@H](CCCCN)C(=O)N[C@@H](CCC(=O)O)C(=O)N[C@@H](C)C(=O)N[C@@H](CS)C(=O)NCC(=O)N[C@@H](CCC(=O)O)C(=O)N[C@@H](CC(C)C)C(=O)N[C@H](C(=O)NCC(=O)N[C@H](C(=O)N[C@H](C(=O)N[C@@H](CS)C(=O)N[C@@H](CCC(=O)O)C(=O)N1CCC[C@H]1C(N)=O)C(C)C)[C@@H](C)O)[C@@H](C)O)C(C)C [P0-E1] (Ac-YRVKEACGELTGTVCEP-NH2)	9000 µM

The molecules below were run against T2, recombinant BTLA-Fc protein (B and T lymphocyte attenuator) (UniProt Q7Z6A9 31-137) (assay: SPR; Biacore T100, CM5 chip; BTLA-Fc coupled by EDC/NHS; peptides injected at 30 µL/min in PBS with 2% DMSO; static (fast dissociation) or kinetic (slow dissociation) model). Conditions: both partners purified.
T2 construct: B and T lymphocyte attenuator (BTLA); source: recombinant
T2 sequence: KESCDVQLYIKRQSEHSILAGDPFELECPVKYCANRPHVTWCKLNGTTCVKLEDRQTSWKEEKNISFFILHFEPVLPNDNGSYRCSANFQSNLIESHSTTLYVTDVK

Molecule	Kd
Ac-YRVKPACGELTGTVCFP-NH2 (cysteine pairing not given here, HVEM residues 23-39 with the DP2 mutations E27P and E38F; also called extended DP2 (17 aa); source: synthetic peptide (SPPS, Fmoc; Jiangsu Shenlang Biotech)) [DP2-E1]	3040 µM
Ac-ESCPKCSPGYRVKEACGELTGTVCEP-NH2 (cysteine pairing not given here) [P0-E2]	94.1 µM
Ac-YRVKEACGELTGTVCEP-NH2 (cysteine pairing not given here) [P0-E1]	9930 µM
Ac-KPACGELTGTVCF-NH2 (cysteine pairing not given here, HVEM residues 26-38 with E27P and E38F; source: synthetic peptide (SPPS, Fmoc; Jiangsu Shenlang Biotech)) [DP2 E27P E38F]	1750 µM
Ac-ESCPKCSPGYRVKPACGELTGTVCFP-NH2 (cysteine pairing not given here, HVEM residues 14-39 with the DP2 mutations E27P and E38F; also called extended DP2 (26 aa); source: synthetic peptide (SPPS, Fmoc; Jiangsu Shenlang Biotech)) [DP2-E2]	0.00146 µM

These molecules were tested on BTLA/HVEM binding (BTLA-Fc coated, HVEM-biotin) (assay: Competitive ELISA, peptides against Biotin-HVEM for BTLA). Conditions: 1 mg/mL peptide, 12 h at room temperature; peptides with response value under 85% of the control were selected; absorbance 630 nm.
Source text: Though computational methods provided certain guidelines for picking the mutations, they are not 100% accurate since simplified models were used, like ignoring the possible conformation changes caused by mutations. Thus, the wet-lab examination is necessary to confirm their inhibition effects. The library containing predicted peptides was synthesized by solid phase peptide synthesis (SPPS) method with Fmoc strategy. We used competitive ELISA for the screen to ensure the positive peptides selectively binds in situ on the BTLA/HVEM interface. Biotin-HVEM was used as the signal reporter. Peptides with strong binding of BTLA will compete with Biotin-HVEM and result in lower signal. A primary screen was carried out by using 1 mg/mL of each peptide and those with response value under 85% of the control were selected for further characterization (Figure 2a).
96-well EIA/RIA plates (High Binding, Corning Incorporated) were coated with 350 ng/well of recombinant BTLA-Fc protein in PBS (50 µL/well), incubating at 37 °C overnight until the solutions evaporate completely. Methanol was added for protein fixation and the wells were blocked with 5% BSA in PBS (200 µL/well). The peptides in DMSO were diluted into 1 mg/mL in PBS (50 µL/well) and incubated 12 h at room temperature. Wells were washed six times with PBST (phosphate buffer saline with 0.1% Tween-20, pH 7.4). Different concentrations of recombinant HVEM-biotin protein (50 µL/well) was added and incubated for 2 h at room temperature. Wells were washed six times with PBS. Horseradish peroxidase (HRP) labeled Streptavidin was finally added at a 1/5000 dilution in PBS and incubated for 2 h at room temperature. 3, 3′, 5, 5′,-tetramethylbenzidine (TMB, Beyotime) was used for color development. The absorbance was read at 630 nm using Microplate Reader. Statistical analysis of the results was performed using GraphPad Prism 7 software.

Molecule	Inhibition in preliminary competitive ELISA screen
CC(=O)N[C@@H](CCCCN)C(=O)N1CCC[C@H]1C(=O)N[C@@H](C)C(=O)N[C@@H](CS)C(=O)NCC(=O)N[C@@H](CCC(=O)O)C(=O)N[C@@H](CC(C)C)C(=O)N[C@H](C(=O)NCC(=O)N[C@H](C(=O)N[C@H](C(=O)N[C@@H](CS)C(=O)N[C@@H](Cc1ccccc1)C(N)=O)C(C)C)[C@@H](C)O)[C@@H](C)O [DP2] (Ac-KPACGELTGTVCF-NH2)	showed inhibition
Ac-KEACGDLTGTVCE-NH2 [SP6, single mutant E31D of HVEM (26–38)]	showed inhibition
Ac-KEACGELPGTVCE-NH2 [SP7, single mutant T33P of HVEM (26–38)]	showed inhibition
Ac-KKACGELTGTVCF-NH2 [DP3, double mutant E27K E38F of HVEM (26–38)]	showed inhibition
Ac-KPACGELTGTVCE-NH2 [SP3, single mutant E27P of HVEM (26–38)]	showed inhibition

Same assay, conditions: competitive ELISA, dose dependent; 1 mg/mL peptide, HVEM-biotin titrated; qualitative comparison

Molecule	Inhibition of BTLA/HVEM binding, titration of peptide-BTLA with different concentrations of HVEM
CC(=O)N[C@@H](Cc1ccc(O)cc1)C(=O)N[C@@H](CCCNC(=N)N)C(=O)N[C@H](C(=O)N[C@@H](CCCCN)C(=O)N1CCC[C@H]1C(=O)N[C@@H](C)C(=O)N[C@@H](CS)C(=O)NCC(=O)N[C@@H](CCC(=O)O)C(=O)N[C@@H](CC(C)C)C(=O)N[C@H](C(=O)NCC(=O)N[C@H](C(=O)N[C@H](C(=O)N[C@@H](CS)C(=O)N[C@@H](Cc1ccccc1)C(=O)N1CCC[C@H]1C(N)=O)C(C)C)[C@@H](C)O)[C@@H](C)O)C(C)C [DP2-E1] (Ac-YRVKPACGELTGTVCFP-NH2)	higher affinity than the native ones
CC(=O)N[C@@H](CCC(=O)O)C(=O)N[C@@H](CO)C(=O)N[C@@H](CS)C(=O)N1CCC[C@H]1C(=O)N[C@@H](CCCCN)C(=O)N[C@@H](CS)C(=O)N[C@@H](CO)C(=O)N1CCC[C@H]1C(=O)NCC(=O)N[C@@H](Cc1ccc(O)cc1)C(=O)N[C@@H](CCCNC(=N)N)C(=O)N[C@H](C(=O)N[C@@H](CCCCN)C(=O)N1CCC[C@H]1C(=O)N[C@@H](C)C(=O)N[C@@H](CS)C(=O)NCC(=O)N[C@@H](CCC(=O)O)C(=O)N[C@@H](CC(C)C)C(=O)N[C@H](C(=O)NCC(=O)N[C@H](C(=O)N[C@H](C(=O)N[C@@H](CS)C(=O)N[C@@H](Cc1ccccc1)C(=O)N1CCC[C@H]1C(N)=O)C(C)C)[C@@H](C)O)[C@@H](C)O)C(C)C [DP2-E2] (Ac-ESCPKCSPGYRVKPACGELTGTVCFP-NH2)	higher affinity than the native ones
CC(=O)N[C@@H](CCCCN)C(=O)N1CCC[C@H]1C(=O)N[C@@H](C)C(=O)N[C@@H](CS)C(=O)NCC(=O)N[C@@H](CCC(=O)O)C(=O)N[C@@H](CC(C)C)C(=O)N[C@H](C(=O)NCC(=O)N[C@H](C(=O)N[C@H](C(=O)N[C@@H](CS)C(=O)N[C@@H](Cc1ccccc1)C(N)=O)C(C)C)[C@@H](C)O)[C@@H](C)O [DP2] (Ac-KPACGELTGTVCF-NH2)	showed the best inhibitory effects
CC(=O)N[C@@H](CCC(=O)O)C(=O)N[C@@H](CO)C(=O)N[C@@H](CS)C(=O)N1CCC[C@H]1C(=O)N[C@@H](CCCCN)C(=O)N[C@@H](CS)C(=O)N[C@@H](CO)C(=O)N1CCC[C@H]1C(=O)NCC(=O)N[C@@H](Cc1ccc(O)cc1)C(=O)N[C@@H](CCCNC(=N)N)C(=O)N[C@H](C(=O)N[C@@H](CCCCN)C(=O)N[C@@H](CCC(=O)O)C(=O)N[C@@H](C)C(=O)N[C@@H](CS)C(=O)NCC(=O)N[C@@H](CCC(=O)O)C(=O)N[C@@H](CC(C)C)C(=O)N[C@H](C(=O)NCC(=O)N[C@H](C(=O)N[C@H](C(=O)N[C@@H](CS)C(=O)N[C@@H](CCC(=O)O)C(=O)N1CCC[C@H]1C(N)=O)C(C)C)[C@@H](C)O)[C@@H](C)O)C(C)C [P0-E2, reference compound] (Ac-ESCPKCSPGYRVKEACGELTGTVCEP-NH2; N-terminus and C-terminus assumed)	more potency than P0
Ac-KEACGELTGTVCE-NH2 [P0, reference compound]	demonstrated little inhibition

From article PMC8234244, “Virtual Evolution of HVEM Segment for Checkpoint Inhibitor Discovery” (International Journal of Molecular Sciences, 2021)
